Data reported in US20100267561A1, “HERBICIDAL PYRIDAZINONE DERIVATIVES” (priority 2007, published 2010).

What was measured:
Type in all cases: in vivo
[1] = system: pigweed (Amaranthus retroflexus); assay: Test C pre-/postemergence plant response
Source text: (§1) Seeds of plant species selected from annual bluegrass (Poa annua), blackgrass (Alopecurus myosuroides), canola (Brassica rapa), downy bromegrass (Bromus tectorum), green foxtail (Setaria viridis), Italian ryegrass (Lolium multiflorum), canarygrass (Phalaris minor), pigweed (Amaranthus retroflexus), spring barley (Hordeum vulgare), spring wheat (Triticum aestivum), wild mustard (Sinapis arvensis), wild oat (Avena fatua), windgrass (Apera spica-venti), winter barley (Hordeum vulgare), and winter wheat (Triticum aestivum) were planted and treated preemergence with test chemicals formulated in a non-phytotoxic solvent mixture which included a surfactant. At the same time, plants selected from these crop and weed species were treated with postemergence applications of some of the test chemicals formulated in the same manner. Plants ranged in height from 2 to 18 cm (1- to 4-leaf stage) for postemergence treatments.
(§2) Treated plants and controls were maintained in a controlled growth environment for 15 to 25 days after which time all species were compared to controls and visually evaluated. Plant response ratings, summarized in Table C, are based on a scale of 0 to 100 where 0 is no effect and 100 is complete control. A dash (-) response means no test result.

[2] = system: annual bluegrass (Poa annua); assay: Test C pre-/postemergence plant response
Source text: as §1, §2

[3] = system: windgrass (Apera spica-venti); assay: Test C pre-/postemergence plant response
Source text: as §1, §2

[4] = system: spring barley (Hordeum vulgare); assay: Test C pre-/postemergence plant response
Source text: as §1, §2

[5] = system: winter barley (Hordeum vulgare); assay: Test C pre-/postemergence plant response
Source text: as §1, §2

[6] = system: wild mustard (Sinapis arvensis); assay: Test C pre-/postemergence plant response
Source text: as §1, §2

[7] = system: spring wheat (Triticum aestivum); assay: Test C pre-/postemergence plant response
Source text: as §1, §2

wild oat (Avena fatua) = assay: Test C pre-/postemergence plant response
Source text: as §1, §2

[8] = system: canarygrass (Phalaris minor); assay: Test C pre-/postemergence plant response; settings: Preemergence
Source text: as §1, §2

[9] = system: blackgrass (Alopecurus myosuroides); assay: Test C pre-/postemergence plant response
Source text: as §1, §2

[10] = system: winter wheat (Triticum aestivum); assay: Test C pre-/postemergence plant response
Source text: as §1, §2

[11] = system: green foxtail (Setaria viridis); assay: Test C pre-/postemergence plant response
Source text: as §1, §2

[12] = system: downy bromegrass (Bromus tectorum); assay: Test C pre-/postemergence plant response
Source text: as §1, §2

[13] = system: Italian ryegrass (Lolium multiflorum); assay: Test C pre-/postemergence plant response
Source text: as §1, §2

[14] = system: ducksalad (Heteranthera limosa); assay: Test B flooded paddy test plant response
Outline: (§3)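 Compounds were added directly to paddy water over 2-leaf-stage plants in pots flooded 3 cm above soil, water depth maintained. Visual injury scored against controls after 13 to 15 days in greenhouse, 0 (none) to 100 (complete control); dash indicates no result.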

rice (Oryza sativa) = assay: Test B flooded paddy test plant response
Outline: as §3

[15] = system: umbrella sedge (Cyperus difformis); assay: Test B flooded paddy test plant response
Outline: as §3

[16] = Postemergence, 8 g ai/ha, scale 0 to 100, 0 no effect, 100 complete control
[17] = Postemergence, 16 g ai/ha, scale 0 to 100, 0 no effect, 100 complete control
[18] = Postemergence, 31 g ai/ha, scale 0 to 100, 0 no effect, 100 complete control
[19] = Postemergence, 62 g ai/ha, scale 0 to 100, 0 no effect, 100 complete control
[20] = Preemergence, 8 g ai/ha, scale 0 to 100 (0 no effect, 100 complete control)
[21] = Preemergence, 16 g ai/ha, scale 0 to 100 (0 no effect, 100 complete control)
[22] = Preemergence, 31 g ai/ha, scale 0 to 100 (0 no effect, 100 complete control)
[23] = Preemergence, 62 g ai/ha, scale 0 to 100, 0 no effect, 100 complete control
[24] = 8 g ai/ha, scale 0 to 100 (0 no effect, 100 complete control)
[25] = 16 g ai/ha, scale 0 to 100 (0 no effect, 100 complete control)
[26] = 31 g ai/ha, scale 0 to 100 (0 no effect, 100 complete control)
[27] = 62 g ai/ha, scale 0 to 100, 0 no effect, 100 complete control
[28] = Flood (flooded paddy test), 62 g ai/ha, scale 0 to 100, 0 no effect, 100 complete control
[29] = Flood (flooded paddy test), 125 g ai/ha, scale 0 to 100, 0 no effect, 100 complete control
[30] = Flood (flooded paddy test), 250 g ai/ha, scale 0 to 100, 0 no effect, 100 complete control
[31] = Flood, 31 g ai/ha, scale 0 to 100

Cc1cc(-c2ccc(Cl)cc2)nn1-c1c(OC(=O)OCC(C)C)cnn(C)c1=O [Compound 57]
50: Plant response rating, Bluegrass [2, 22] | Plant response rating, Windgrass [3, 22] | Plant response rating, Wheat, Winter [10, 19]
100: Plant response rating, Oat, Wild (wild oat (Avena fatua); [19]) | Plant response rating, Foxtail, Green [11, 17] | Plant response rating, Foxtail, Green [11, 18] | Plant response rating, Foxtail, Green [11, 19] | Plant response rating, Foxtail, Green [11, 21] | Plant response rating, Foxtail, Green [11, 22] | Plant response rating, Foxtail, Green [11, 23] | Plant response rating, Ryegrass, Italian [13, 18] | Plant response rating, Ryegrass, Italian [13, 19] | Plant response rating, Ryegrass, Italian [13, 22] | Plant response rating, Ryegrass, Italian [13, 23]
40: Plant response rating, Barley, Spring [4, 19] | Plant response rating, Barley, Spring [4, 23] | Plant response rating, Foxtail, Green [11, 20] | Plant response rating, Bromegrass, Downy [12, 22]
95: Plant response rating, Blackgrass [9, 22] | Plant response rating, Blackgrass [9, 23]
90: Plant response rating, Barley, Winter [5, 19] | Plant response rating, Wheat, Spring [7, 23] | Plant response rating, Oat, Wild (wild oat (Avena fatua); [17]) | Plant response rating, Oat, Wild (wild oat (Avena fatua); [18]) | Plant response rating, Canarygrass [8, 27] | Plant response rating, Foxtail, Green [11, 16]
98: Plant response rating, Blackgrass [9, 18] | Plant response rating, Ryegrass, Italian [13, 17]
65: Plant response rating, Bluegrass [2, 23] | Plant response rating, Windgrass [3, 19] | Plant response rating, Wheat, Spring [7, 22] | Plant response rating, Wheat, Winter [10, 23] | Plant response rating, Ryegrass, Italian [13, 20] | Plant response rating, Sedge, Umbrella [15, 28]
85: Plant response rating, Blackgrass [9, 21] | Plant response rating, Ryegrass, Italian [13, 21]
15: Plant response rating, Barley, Winter [5, 17] | Plant response rating, Barley, Winter [5, 18] | Plant response rating, Oat, Wild (wild oat (Avena fatua); [21]) | Plant response rating, Wheat, Winter [10, 20] | Plant response rating, Wheat, Winter [10, 21] | Plant response rating, Rice (rice (Oryza sativa); [30])
60: Plant response rating, Barley, Winter [5, 23] | Plant response rating, Oat, Wild (wild oat (Avena fatua); [22])
10: Plant response rating, Bluegrass [2, 17] | Plant response rating, Oat, Wild (wild oat (Avena fatua); [16]) | Plant response rating, Rice (rice (Oryza sativa); [29])
45: Plant response rating, Sedge, Umbrella [15, 31]
25: Plant response rating, Wheat, Spring [7, 17]
75: Plant response rating, Windgrass [3, 23] | Plant response rating, Wheat, Spring [7, 18] | Plant response rating, Wheat, Spring [7, 19] | Plant response rating, Canarygrass [8, 25] | Plant response rating, Blackgrass [9, 17] | Plant response rating, Blackgrass [9, 20] | Plant response rating, Ryegrass, Italian [13, 16] | Plant response rating, Sedge, Umbrella [15, 29]
0: Plant response rating, Pigweed [1, 16] | Plant response rating, Pigweed [1, 17] | Plant response rating, Pigweed [1, 18] | Plant response rating, Pigweed [1, 19] | Plant response rating, Pigweed [1, 20] | Plant response rating, Pigweed [1, 21] | Plant response rating, Pigweed [1, 22] | Plant response rating, Pigweed [1, 23] | Plant response rating, Bluegrass [2, 16] | Plant response rating, Bluegrass [2, 20] | Plant response rating, Windgrass [3, 16] | Plant response rating, Windgrass [3, 17] | Plant response rating, Windgrass [3, 18] | Plant response rating, Windgrass [3, 20] | Plant response rating, Windgrass [3, 21] | Plant response rating, Barley, Spring [4, 16] | Plant response rating, Barley, Spring [4, 20] | Plant response rating, Barley, Spring [4, 21] | Plant response rating, Barley, Winter [5, 16] | Plant response rating, Barley, Winter [5, 20] | Plant response rating, Barley, Winter [5, 21] | Plant response rating, Mustard, Wild [6, 16] | Plant response rating, Mustard, Wild [6, 17] | Plant response rating, Mustard, Wild [6, 18] | Plant response rating, Mustard, Wild [6, 19] | Plant response rating, Mustard, Wild [6, 20] | Plant response rating, Mustard, Wild [6, 21] | Plant response rating, Mustard, Wild [6, 22] | Plant response rating, Mustard, Wild [6, 23] | Plant response rating, Wheat, Spring [7, 16] | Plant response rating, Oat, Wild (wild oat (Avena fatua); [20]) | Plant response rating, Canarygrass [8, 24] | Plant response rating, Wheat, Winter [10, 16] | Plant response rating, Bromegrass, Downy [12, 16] | Plant response rating, Bromegrass, Downy [12, 20] | Plant response rating, Ducksalad [14, 28] | Plant response rating, Ducksalad [14, 29] | Plant response rating, Rice (rice (Oryza sativa); [28]) | Plant response rating, Rice (rice (Oryza sativa); [31])
35: Plant response rating, Bluegrass [2, 19] | Plant response rating, Blackgrass [9, 16]
20: Plant response rating, Barley, Spring [4, 17] | Plant response rating, Barley, Spring [4, 22] | Plant response rating, Barley, Winter [5, 22] | Plant response rating, Wheat, Spring [7, 20] | Plant response rating, Wheat, Spring [7, 21] | Plant response rating, Wheat, Winter [10, 22] | Plant response rating, Bromegrass, Downy [12, 21]
30: Plant response rating, Bluegrass [2, 18] | Plant response rating, Bluegrass [2, 21] | Plant response rating, Barley, Spring [4, 18] | Plant response rating, Wheat, Winter [10, 17] | Plant response rating, Wheat, Winter [10, 18] | Plant response rating, Bromegrass, Downy [12, 17] | Plant response rating, Bromegrass, Downy [12, 18]
70: Plant response rating, Bromegrass, Downy [12, 19] | Plant response rating, Ducksalad [14, 30]
80: Plant response rating, Oat, Wild (wild oat (Avena fatua); [23]) | Plant response rating, Canarygrass [8, 26] | Plant response rating, Bromegrass, Downy [12, 23] | Plant response rating, Sedge, Umbrella [15, 30]

Cc1cc(-c2ccc(Cl)cc2)nn1-c1c(OC(=O)C(C)C)cnn(C)c1=O [Compound 34]
25: Plant response rating, Wheat, Winter [10, 22]
90: Plant response rating, Wheat, Spring [7, 23]
60: Plant response rating, Windgrass [3, 23] | Plant response rating, Wheat, Winter [10, 23] | Plant response rating, Bromegrass, Downy [12, 23]
100: Plant response rating, Canarygrass [8, 27] | Plant response rating, Foxtail, Green [11, 21] | Plant response rating, Foxtail, Green [11, 22] | Plant response rating, Foxtail, Green [11, 23] | Plant response rating, Ryegrass, Italian [13, 21] | Plant response rating, Ryegrass, Italian [13, 22] | Plant response rating, Ryegrass, Italian [13, 23]
50: Plant response rating, Wheat, Spring [7, 22]
80: Plant response rating, Rice (rice (Oryza sativa); [30])
10: Plant response rating, Barley, Winter [5, 22] | Plant response rating, Wheat, Winter [10, 21] | Plant response rating, Bromegrass, Downy [12, 22]
85: Plant response rating, Blackgrass [9, 23]
65: Plant response rating, Canarygrass [8, 26]
75: Plant response rating, Oat, Wild (wild oat (Avena fatua); [23]) | Plant response rating, Blackgrass [9, 22]
30: Plant response rating, Foxtail, Green [11, 20] | Plant response rating, Ryegrass, Italian [13, 20] | Plant response rating, Ducksalad [14, 29]
0: Plant response rating, Pigweed [1, 20] | Plant response rating, Pigweed [1, 21] | Plant response rating, Pigweed [1, 22] | Plant response rating, Pigweed [1, 23] | Plant response rating, Bluegrass [2, 20] | Plant response rating, Bluegrass [2, 21] | Plant response rating, Bluegrass [2, 22] | Plant response rating, Windgrass [3, 20] | Plant response rating, Windgrass [3, 21] | Plant response rating, Barley, Spring [4, 20] | Plant response rating, Barley, Spring [4, 21] | Plant response rating, Barley, Spring [4, 22] | Plant response rating, Barley, Winter [5, 20] | Plant response rating, Barley, Winter [5, 21] | Plant response rating, Mustard, Wild [6, 21] | Plant response rating, Mustard, Wild [6, 22] | Plant response rating, Mustard, Wild [6, 23] | Plant response rating, Wheat, Spring [7, 20] | Plant response rating, Wheat, Spring [7, 21] | Plant response rating, Oat, Wild (wild oat (Avena fatua); [20]) | Plant response rating, Oat, Wild (wild oat (Avena fatua); [21]) | Plant response rating, Canarygrass [8, 24] | Plant response rating, Blackgrass [9, 20] | Plant response rating, Wheat, Winter [10, 20] | Plant response rating, Bromegrass, Downy [12, 20] | Plant response rating, Bromegrass, Downy [12, 21] | Plant response rating, Ducksalad [14, 28] | Plant response rating, Ducksalad [14, 31] | Plant response rating, Rice (rice (Oryza sativa); [31]) | Plant response rating, Sedge, Umbrella [15, 28] | Plant response rating, Sedge, Umbrella [15, 29] | Plant response rating, Sedge, Umbrella [15, 30] | Plant response rating, Sedge, Umbrella [15, 31]
70: Plant response rating, Barley, Spring [4, 23] | Plant response rating, Oat, Wild (wild oat (Avena fatua); [22]) | Plant response rating, Rice (rice (Oryza sativa); [29])
40: Plant response rating, Ducksalad [14, 30] | Plant response rating, Rice (rice (Oryza sativa); [28])
20: Plant response rating, Windgrass [3, 22] | Plant response rating, Canarygrass [8, 25] | Plant response rating, Blackgrass [9, 21]
35: Plant response rating, Bluegrass [2, 23] | Plant response rating, Barley, Winter [5, 23]
